Test results taken from US20230346773A1, “USE OF PCSK9 INHIBITOR IN PREPARATION OF PRODUCT FOR TREATING MULTIPLE DISEASES” (priority 2020, published 2023).
Marks after values point to notes of the source that are not given here.

Experiments:
[1] = system: tyrosinase; assay: Tyrosinase intensity in skin tissue of vitiligo guinea pig model (immunohistochemistry, two-level scoring); assay type: in vivo; details: n = 10; for Color (units): score in brackets for staining colour; for Number of positive cells (units): score in brackets for tyrosinase-positive cells; for Total number (units): sum of positive-cell and colour scores; for Color: tyrosinase staining colour; for Number of positive cells: tyrosinase-positive cells
Protocol: 10 in each group, Half male and female. Except for the blank control group, the other groups were smeared with 5% hydroquinone in the hair removal area for decolorization, 0.5 mL each time, twice a day, and the animals in the blank control group were smeared with an equal amount of normal saline every day. […] After modeling, the drug was administered in the above manner, once a day for 30 days.
The excised mouse skin tissue was fixed in 10% formalin dehydrated, cleared in xylene, embedded in paraffin, sectioned, deparaffinized to water, then 50 μL of peroxidase blocking agent (3% H2O2) was added to each section for 10 min to block endogenous peroxidase activity. The sections were immersed in 0.01 mol·L-1PBS buffer and microwaved for 10 min, added with 50 μL mouse anti-human tyrosinase monoclonal antibody, left at 37° C. for 60 min, then added with 50 μL of Elivision reagent, left at 37° C. for 30 min. The sections were then placed in freshly prepared DAB-H2O2 chromogenic solution for color development, rinsed with distilled water, stained with hematoxylin for contrast for 1 min, and sealed with neutral gum. The tyrosinase-positive product was located in the cytoplasm of the cell, shown as yellow or brownish-yellow granules or clumps in the cells under the microscope. The two-level scoring method was used to determine the results. If the number of positive cells was less than 5%, the score was 0; 5%˜25% is 1 point; 2 points for 25%˜50%; 3 points for 50%˜75%; >75% is 4 points. When classified according to staining intensity: 1 point for light yellow; 2 points for yellow or dark yellow; 3 points for brown or brownish yellow. If the sum of the two was less than 2, it was negative (−); 2-3 points as positive (+); 4-5 points as moderately positive (2+); 6-7 points as strongly positive (3+).

[2] = system: androgenetic alopecia (SA) rat model; assay: Androgenetic alopecia (SA) rat model induced by testosterone propionate; assay type: in vivo, Wistar rats; details: for Skin hair follicles and sebaceous glands: number of rats graded ++ / Skin hair follicles and sebaceous glands: number of rats graded ± / Skin hair follicles and sebaceous glands: number of rats graded + / Skin hair follicles and sebaceous glands: number of rats graded − / Skin hair follicles and sebaceous glands: number of rats graded +++: 10 rats, after 60 days; for Skin hair follicles and sebaceous glands: number of rats graded ++: few follicles with cystic degeneration, sebaceous glands mild hyperplasia and hypertrophy; for Skin hair follicles and sebaceous glands: number of rats graded ±: no hyperplasia in the dermis, limited lesions of hair follicles and sebaceous glands, no subcutaneous inflammation; for Skin hair follicles and sebaceous glands: number of rats graded +: no obvious hyperplasia in dermis, obviously cystic follicles, no inflammation; for Skin hair follicles and sebaceous glands: number of rats graded −: normal skin dermal tissue cells, subcutaneous hair follicles and sebaceous glands; for Skin hair follicles and sebaceous glands: number of rats graded +++: segmental hyperplasia, degenerated follicles, hyperplasia of sebaceous glands, mild inflammatory hyperplasia; for 15 d hair length / 30 d hair length / 45 d hair length / 60 d hair length: rats; for 15 d hair length: 15 days after administration; for 30 d hair length: 30 days after administration; for 45 d hair length: 45 days after administration; for 60 d hair length: 60 days after administration
Protocol: SPF grade Wistar rats were selected and randomly divided into compound group 1 (skin applied with 5% R-IMPP solution), compound group 2 (skin applied with 5% PF 06446846 solution), and compound group 3 (skin applied with 5% SBC-115076 solution), compound group 4 (skin applied with 5% SBC-110736 solution), monoclonal antibody group 1 (subcutaneous injection of PCSK9 monoclonal antibody ab84041, 5 mg/kg·d), monoclonal antibody group 2 (subcutaneous injection of Evolocumab, 5 mg/kg·d), monoclonal antibody group 3 (subcutaneous injection of Alirocumab, 5 mg/kg·d), PCSK9 RNAi inhibitor group-1 (skin applied with 5% PCSK9 small interfering RNA-1 solution), PCSK9 RNAi inhibitor group-2 (skin applied with 5% PCSK9 small interfering RNA-2 solution), PCSK9 RNAi inhibitor group-3 (skin applied with 5% PCSK9 small interfering RNA-3 solution), and polypeptide group (subcutaneous injection of Abcam company ab32727, 3 mg/kg·d), positive control group (skin smeared with 5% minoxidil tincture), negative control group (smeared with 75% ethanol), model control group (smeared with 75% ethanol), 10 rats in each group, half male and half female.
Before the experiment, each rat selected an area of 4 cm×5 cm on the back to remove the hair as the observation area. Except for the negative control group, the rats were subcutaneously injected with testosterone propionate injection [[…]] at the back of the neck, once a day for 60 consecutive days to establish the SA model. […] At the same time, the rats in the corresponding drug group were smeared or subcutaneously injected on the skin of the observation area of the rats in the drug group, smeared 1 ml/(per time), twice a day, with an interval of 8 hours, and administered by subcutaneous injection, once a day. The negative control group and the model control group were smeared with excipient (75% ethanol solution), 1 mL one rat per time, twice a day, for 60 consecutive days.
10 hairs were extracted from the observation area on the back of each rat every 15 days after administration, and the hair length was measured with a vernier caliper. After 60 days of administration, the skin of the experimental observation area was taken for routine tissue dehydration, paraffin embedding, HE staining, and light microscopy to observe the histopathological changes of the rat skin hair follicles and sebaceous glands. Semi-quantitative analysis was carried out in each group. The grading standards are as follows: normal skin dermal tissue cells, subcutaneous hair follicles, and sebaceous glands were marked as “one”; no hyperplasia in the dermis, limited lesions of hair follicles and sebaceous glands, and no subcutaneous inflammation, marked as “±”; no obvious hyperplasia found in the dermis, obviously cystic follicles, no obvious hyperplasia found in the sebaceous glands, and no inflammation is recorded as “+”; segmental hyperplasia of skin and dermis was not obvious, a small number of hair follicles had cystic degeneration, and sebaceous glands had mild hyperplasia and hypertrophy. No obvious inflammation under the skin was recorded as “++”; the skin and dermis tissue cells had segmental hyperplasia of different degrees, some follicles degenerated, the size of the hair follicles was uneven, and there were no cells in the periphery. There was hyperplasia of sebaceous glands, and there were few nuclei in the hyperplasia glands. Individual rats had mild inflammatory hyperplasia under the skin, which was marked as “+++”.

Row | Molecule | Color (units) [1] | Number of positive cells (units) [1] | Total number (units) [1] | Color [1] | Number of positive cells [1] | Skin hair follicles and sebaceous glands: number of rats graded ++ [2] | Skin hair follicles and sebaceous glands: number of rats graded ± [2] | Skin hair follicles and sebaceous glands: number of rats graded + [2] | Skin hair follicles and sebaceous glands: number of rats graded − [2] | Skin hair follicles and sebaceous glands: number of rats graded +++ [2] | 15 d hair length [2] | 30 d hair length [2] | 45 d hair length [2] | 60 d hair length [2]
1 | Cc1cc(C(=O)C2=C(O)C(=O)N(CCCN3CCOCC3)C2c2ccncc2)ccc1OCc1ccccc1 (stereo not shown) [Compound group 3, SBC-115076] | 3 units | 3 units | 6 units | Brownish-yellow | 30% | 3 | 4 | 2 | 1 | 0 | 8.3* mm | 8.8* mm | 14.5* mm | 17.6* mm
2 | O=C(c1ccc(-n2nnc3cccnc32)cc1)N(c1ncccc1Cl)[C@@H]1CCCNC1 [Compound group 2, PF 06446846] | 3 units | 4 units | 7 units | Brownish-yellow | 40% | 1 | 5 | 2 | 2 | 0 | 9.2* mm | 10.1* mm | 15.2* mm | 18.9* mm
3 | ALN-PCS [RNA interference group 3] | 2 units | 3 units | 5 units | Yellow | 30% | 2 | 3 | 4 | 1 | 0 | 8.2* mm | 8.9* mm | 14.2* mm | 16.7* mm
4 | Inclisran [RNA interference group 2] | 2 units | 3 units | 5 units | Yellow | 30% | 1 | 4 | 4 | 1 | 0 | 8.3* mm | 9.1* mm | 14.5* mm | 16.9* mm
5 | Alirocumab [Monoclonal antibody group 3] | 4 units | 3 units | 7 units | Brownish-yellow | 30% | 1 | 4 | 2 | 3 | 0 | 9.5* mm | 10.5* mm | 15.5* mm | 19.2* mm
6 | CC(=O)Nc1ccc(C(=O)N2CCN(c3ccc(C)cc3)CC2c2ccccc2)cc1 (stereo not shown) [Compound group 4, SBC-110736] | 3 units | 3 units | 6 units | Brownish-yellow | 30% | 2 | 4 | 3 | 1 | 0 | 8.1* mm | 8.6* mm | 14.3* mm | 17.3* mm
7 | COc1ccc(CCC(=O)N(c2nccc3ccccc23)[C@@H]2CCCNC2)cc1 [Compound group 1, R-IMPP] | 2 units | 3 units | 5 units | Brownish-yellow | 30% | 3 | 5 | 2 | 0 | 0 | 8.9* mm | 9.9* mm | 14.7* mm | 18.2* mm
8 | Evolocumab (antibody, chains of the INN, looked up, V domains shown, PCSK9 monoclonal antibody jointly developed by Amgen and Astellas, trade name Repatha) VH: EVQLVQSGAEVKKPGASVKVSCKASGYTLTSYGISWVRQAPGQGLEWMGWVSFYNGNTNYAQKLQGRGTMTTDPSTSTAYMELRSLRSDDTAVYYCARGYGMDVWGQGTTVTVSS VL: ESALTQPASVSGSPGQSITISCTGTSSDVGGYNSVSWYQQHPGKAPKLMIYEVSNRPSGVSNRFSGSKSGNTASLTISGLQAEDEADYYCNSYTSTSMVFGGGTKLTVL | 4 units | 4 units | 7 units | Brownish-yellow | 40% | 0 | 4 | 3 | 3 | 0 | 9.7* mm | 10.8* mm | 15.8* mm | 19.5* mm
